We go through two compounds from patent publication US20260374818A1, “CATIONIC PEPTIDES WITH BROAD SPECTRUM ACTIVITY” (priority 2023, published 2026).

One series concerns MRSA USA300 biofilms. The series can be described thus: Biofilm inhibition by >95% pure peptides (crystal violet), MRSA. Format: cell-based, methicillin resistant Staphylococcus aureus. The conditions noted are these: for minimum inhibitory concentration of peptide that inhibited at least 90% of biofilm growth (MBIC90): MRSA USA300 biofilms, >95% pure peptides, 10% TSB + 0.1% glucose; for pIC50: MRSA, 24 hours.

The test system of another series is MRSA preformed biofilms. The series can be described thus: Biofilm eradication of 24-hr preformed biofilms (TTC metabolic dye), MRSA. The following applies: 24-hr preformed biofilms treated overnight. Format: cell-based, methicillin resistant Staphylococcus aureus.
The next series concerns MRSA planktonic cells. Description: Planktonic inhibition by AB103-D single substitution variants, MRSA. Format: cell-based, methicillin resistant Staphylococcus aureus. The following applies: read-out: IC50 of AB103-D alone, planktonic. The text has this: A series of single amino acid substitution variants of the AB103-D peptide were generated on cellulose arrays using SPOT-synthesis technology [Hilpert, K., Winkler, D. F., & Hancock, R. E. W. (2007). Peptide arrays on cellulose support: SPOT synthesis, a time and cost efficient method for synthesis of large numbers of peptides in a parallel and addressable fashion. Nature Protocols, 2(6), 1333-1349; Frank, R. (2002). The SPOT-synthesis technique. Synthetic peptide arrays on membrane supports-principles and applications. J Immunol Methods, 267(1), 13-26] to test for enhanced Gram-negative activity against P. aeruginosa and determine which residues contribute to the antibiofilm effects of this peptide. 96 AB103-D variants were generated by replacing each residue in the parent peptide with one of D-Arg, D-Lys, D-Glu, Gly, D-Ala, D-Ile, D-Leu, D-Val and D-Trp. The biofilm inhibitory activity of all 96 AB103-D variants was subsequently assessed against MRSA USA300 LAC or P. aeruginosa PAO1 in a microtitre plate assay [Haney, E. F., Trimble, M. J., & Hancock, R. E. W. (2021). Microtiter plate assays to assess antibiofilm activity against bacteria. Nature Protocols, 16(5), 2615-2632]. […].

The subject of another series is P. aeruginosa PAO1. Description: MIC (broth microdilution) of peptides, P. aeruginosa. Format: cell-based, Pseudomonas aeruginosa. The following applies: mode of three biological replicates. How it is done: (§1) Minimal inhibitory concentration (MIC) against planktonic bacteria: The MIC of the synthetic peptides was determined in Mueller-Hinton broth (MHB) using the broth microdilution method described previously [Wiegand, I., Hilpert, K., & Hancock, R. E. (2008). Agar and broth dilution methods to determine the minimal inhibitory concentration (MIC) of antimicrobial substances. Nature Protocols, 3(2), 163-175]. Briefly, 10 μl of a 10× concentrated peptide solution was placed in the bottom of a well in a 96-well polypropylene round bottom plate (Corning Inc.). A bacterial suspension of ~5×10^5 CFU/ml was prepared from an overnight culture and 90 μl of this was added to each well. […] Bacteria tested included P. aeruginosa PAO1, MRSA USA300 LAC, Staphylococcus haemolyticus, Staphylococcus epidermidis, Klebsiella pneumoniae and Streptococcus salivarius.
(§2) Finally, the AB103-D derivatives that were the least aggregation prone and which produced the lowest toxic effects in vivo were evaluated for their direct antibacterial activity towards several pathogens of clinical relevance using a standard minimum inhibitory concentration (MIC) assay [Wiegand, I., Hilpert, K., & Hancock, R. E. (2008). Agar and broth dilution methods to determine the minimal inhibitory concentration (MIC) of antimicrobial substances. Nature Protocols, 3(2), 163-175]. Specifically, peptides AB110-D, AB111-D, AB114-D and AB115-D were tested against P. aeruginosa PAO1, MRSA USA 300, Staphylococcus haemolyticus, Staphylococcus epidermidis, Klebsiella pneumoniae and Streptococcus salivarius and compared against the antibacterial activity of DJK-5 and AB103-D (Table 7). Overall, the antibacterial potency of all of the AB103-D derivatives was stronger than that seen for DJK-5, particularly in the case of the Gram-negative pathogens P. aeruginosa and K. pneumoniae. […]

The subject of the next series is MRSA USA 300. Description: MIC (broth microdilution) of peptides, MRSA. Format: cell-based, methicillin resistant Staphylococcus aureus. The conditions noted are these: MRSA USA300; mode of three biological replicates. Here is the method: as §1, §2
Background: In broth dilution the organism is exposed to a series of concentrations in liquid medium.

The test system of series [1] is Staphylococcus epidermidis. Description: MIC (broth microdilution) of peptides, S. epidermidis. The conditions noted are these: mode of three biological replicates. Format: cell-based. How it is done: as §1, §2
The subject of series [2] is Enterococcus faecium #2-1. Description: Biofilm inhibition (at least 80%), E. faecium. The following applies: E. faecium #2-1; n = 3; TSB + 1% glucose; 48 hours; crystal violet. Format: cell-based.
Series [3] can be described thus: Subdermal murine toxicity model. The conditions noted are these: for Clinical score: 1 hour after subcutaneous administration, comparator DJK-5. How it is done:
FIGS. 14A-14B show murine subdermal toxicity assessment of AB103-D derived peptides. Clinical scores were recorded for each peptide treated mouse one hour after peptide administration (FIG. 14A). […] The presence of a cyst or lesion was recorded 16 hours after peptide administration and the size of the cyst was measured using calipers (FIG. 14B). Data shown are the mean of two independent replicates at a peptide dose of 4 mg/kg.
Subdermal murine toxicity model: A subdermal toxicity mouse model was used to evaluate whether peptides induced localized toxicity of treated cutaneous tissue. Mice were anesthetized with 2.5-3% isoflurane and their fur was removed by shaving followed by application of a chemical depilatory. […] Mice were visually assessed and received clinical scores for a battery of signs or symptoms (activity/behaviour change, appearance/grooming, hydration, pain, cyst formation), for which a score of zero was given to animals that appeared normal. Animals were weighed and clinical scores were totalled. Following an overnight (16 h) incubation, mice were scored and weighed then euthanized with CO2 followed by cervical dislocation. Mice were imaged and cysts (swollen, inflamed tissue) were measured using a caliper. Animal experiments were performed in accordance with the Canadian Council on Animal Care (CCAC) guidelines and were approved by the University of British Columbia Animal Care Committee. Female CD-1 mice were purchased from Charles River Laboratories, Inc. (Wilmington, MA). All mice were 8 weeks of age and weighed 25±5 g at the time of the experiment. Animals were group housed in cohorts of three to four littermates. Standard animal husbandry practices were employed.

Series [4] deals with P. aeruginosa PAO1 biofilms. The following applies: for minimum inhibitory concentration of peptide that inhibited at least 90% of biofilm growth (MBIC90): P. aeruginosa PAO1 biofilms, >95% pure peptides, BM2 minimal media; for minimum inhibitory concentration of peptide that inhibited at least 90% of biofilm growth (MBIC90) / pIC50: crystal violet; for pIC50: read-out: Biofilm Inhibition IC50, PAO1, 24 hours.

Broadly, the pIC50 is the IC50 on a negative log10 scale, so that one unit is a factor of ten. The term MIC denotes the least concentration at which growth counts as inhibited. A higher MIC goes with a less susceptible organism.

pIC50: −log10 of the molar value. Values after ≈ are worked out from the molar mass of the structure shown. Where a SMILES comes first, the peptide text is derived from it. [ ]: non-standard residue; d: D form.

For the compound `CC[C@@H](C)[C@@H](NC(=O)[C@@H](C)NC(=O)[C@@H](CCCNC(=N)N)NC(=O)[C@@H](Cc1c[nH]c2ccccc12)NC(=O)[C@@H](CCC(N)=O)NC(=O)[C@H](NC(=O)[C@@H](CCCNC(=N)N)NC(=O)[C@H](NC(=O)[C@H](NC(=O)[C@@H](CCCNC(=N)N)NC(=O)[C@H](NC(=O)[C@H](N)CCCNC(=N)N)C(C)C)C(C)C)[C@H](C)CC)C(C)C)C(N)=O` [AB103-D, rvrvirvqwrai-NH2] (H-[dR][dV][dR][dV][dI][dR][dV][dQ][dW][dR][dA][dI]-NH2), the “minimum inhibitory concentration of peptide that inhibited at least 90% of biofilm growth (MBIC90)” value in the series on MRSA USA300 biofilms was 1 µM; in series [4] it was 8 µM. Besides, the negative-log IC50 (pIC50) was 6.47 in the series with MRSA USA300 biofilms, 5.66 in the series with MRSA preformed biofilms, 5.71 in the series on MRSA planktonic cells and 5.72 in series [4]. In addition, the MIC against P. aeruginosa PAO1 stood at 2 µg/mL (≈ 1.29 µM); against MRSA USA 300, 0.8 µg/mL (≈ 0.516 µM); in [1], 0.8 µg/mL (≈ 0.516 µM). For the same compound, the “Peptide/Antibiotic Concentration where at least 80% of biofilm growth was inhibited” value in series [2] was 1 µg/mL. For the same compound, in [3], the Clinical score is listed as less than 2. Moreover, the “Average cyst size compared to DJK-5” value in series [3] (16 hours after administration, 4 mg/kg) is recorded as “smaller than those induced by DJK-5”. Moreover, in series [4] (P. aeruginosa), the “Biofilm inhibition activity compared to DJK5” value is reported as not below 4 fold.
On to `CC[C@@H](C)[C@@H](NC(=O)[C@@H](C)NC(=O)[C@@H](CCCNC(=N)N)NC(=O)[C@@H](Cc1c[nH]c2ccccc12)NC(=O)[C@@H](CCC(N)=O)NC(=O)[C@H](N)C(C)C)C(=O)N[C@H](CCCNC(=N)N)C(=O)N[C@@H](C(=O)N[C@H](CCCNC(=N)N)C(=O)N[C@@H](C(=O)N[C@@H](C(=O)N[C@H](CCCNC(=N)N)C(N)=O)[C@H](C)CC)C(C)C)C(C)C` [DJK5, vqwrairvrvir-NH2] (H-[dV][dQ][dW][dR][dA][dI][dR][dV][dR][dV][dI][dR]-NH2), for which the “minimum inhibitory concentration of peptide that inhibited at least 90% of biofilm growth (MBIC90)” value in the series on MRSA USA300 biofilms was 0.5 µM; in series [4], 16 µM. Further, the pIC50 with MRSA USA300 biofilms is 6.46; with MRSA preformed biofilms, 5.80; in series [4], 5.13. Moreover, the MIC in the series on P. aeruginosa PAO1 stood at 6 µg/mL (≈ 3.87 µM); in the series with MRSA USA 300 it was 0.8 µg/mL (≈ 0.516 µM); in series [1], 0.8 µg/mL (≈ 0.516 µM). Besides, the “Peptide/Antibiotic Concentration where at least 80% of biofilm growth was inhibited” value in series [2] amounted to 1 µg/mL. Moreover, in series [3], the Clinical score is on record as 2.
